Source: patent EP4667464A1 (Cyrus Therapeutics Inc., priority 2023, dated 2024)
Where two headings read alike, the source gives them in different places.

How the values were obtained:
[1] = molecular target: T1, SOS1 (Homo sapiens, UniProt Q07889); experiment: SOS-catalyzed nucleotide exchange assay (HTRF, SOS1-mediated GTP loading of KRAS G12D); assay type: biochemical
T1 construct: HIS-SOS1cat (160 nM; Cytoskeleton, US); His (N); purchased Cytoskeleton
T1 sequence (Q07889 564-1049 limits assumed): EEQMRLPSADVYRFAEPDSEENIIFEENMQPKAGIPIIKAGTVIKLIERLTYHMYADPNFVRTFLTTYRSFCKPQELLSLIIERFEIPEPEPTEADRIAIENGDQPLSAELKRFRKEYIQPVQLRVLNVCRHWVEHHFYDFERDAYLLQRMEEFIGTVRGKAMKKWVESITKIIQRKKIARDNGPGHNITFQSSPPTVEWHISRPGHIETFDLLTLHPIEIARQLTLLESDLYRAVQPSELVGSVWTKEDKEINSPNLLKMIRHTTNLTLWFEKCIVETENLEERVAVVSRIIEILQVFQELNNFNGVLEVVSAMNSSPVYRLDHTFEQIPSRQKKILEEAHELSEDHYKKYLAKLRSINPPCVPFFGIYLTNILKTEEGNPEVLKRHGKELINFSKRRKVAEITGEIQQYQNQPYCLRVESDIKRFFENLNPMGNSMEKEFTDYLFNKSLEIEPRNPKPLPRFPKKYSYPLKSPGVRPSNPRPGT
Method: SOS1 activity was measured by SOS1-mediated GTP loading quantification of KRAS^G12D. GTP loaded KRAS^G12D was detected by HTRF (Homogeneous Time Resolved Fluorescence) using anti-GST terbium (Cisbio, France) as a donor and a fluorescence GTP analogue (EDA-GTP-DY-647P1, [DY-647P1 labeled 2'/3'-O-(2-aminoethyl-carbamoyl)guanosine-5'-triphosphate (Jena bioscience, Germany)]) as an acceptor.
KRAS^G12D working solution was prepared by adding equal amounts of GST-KRAS^G12D (100 nM) and anti-GST-terbium (2 nM; Cisbio, France) to the assay buffer and culturing on ice for 10 minutes. […] Control solution was prepared by adding equal volumes of EDA-GTP-DY-647P1 and the assay buffer for normalization control to exclude GEF-independent GTP loading and background signals.
10 uL of the KRAS^G12D solution was added to each well and incubated for 30 minutes at room temperature while shaking. HTRF was measured using a Thermo Varioskan (excitation 334 nm, emission 665 nm). The IC50 of each inhibitor was analyzed using Graphad Prism.

[2] = molecular target: T2, KRAS G12C::SOS1 (Homo sapiens, UniProt Q07889); experiment: KRAS G12C::SOS1 protein-protein interaction (PPI) inhibition assay (HTRF); assay type: binding
T2 construct: purchased CISBIO 64KRASG12PEH
T2 sequence (Q07889 1-1333): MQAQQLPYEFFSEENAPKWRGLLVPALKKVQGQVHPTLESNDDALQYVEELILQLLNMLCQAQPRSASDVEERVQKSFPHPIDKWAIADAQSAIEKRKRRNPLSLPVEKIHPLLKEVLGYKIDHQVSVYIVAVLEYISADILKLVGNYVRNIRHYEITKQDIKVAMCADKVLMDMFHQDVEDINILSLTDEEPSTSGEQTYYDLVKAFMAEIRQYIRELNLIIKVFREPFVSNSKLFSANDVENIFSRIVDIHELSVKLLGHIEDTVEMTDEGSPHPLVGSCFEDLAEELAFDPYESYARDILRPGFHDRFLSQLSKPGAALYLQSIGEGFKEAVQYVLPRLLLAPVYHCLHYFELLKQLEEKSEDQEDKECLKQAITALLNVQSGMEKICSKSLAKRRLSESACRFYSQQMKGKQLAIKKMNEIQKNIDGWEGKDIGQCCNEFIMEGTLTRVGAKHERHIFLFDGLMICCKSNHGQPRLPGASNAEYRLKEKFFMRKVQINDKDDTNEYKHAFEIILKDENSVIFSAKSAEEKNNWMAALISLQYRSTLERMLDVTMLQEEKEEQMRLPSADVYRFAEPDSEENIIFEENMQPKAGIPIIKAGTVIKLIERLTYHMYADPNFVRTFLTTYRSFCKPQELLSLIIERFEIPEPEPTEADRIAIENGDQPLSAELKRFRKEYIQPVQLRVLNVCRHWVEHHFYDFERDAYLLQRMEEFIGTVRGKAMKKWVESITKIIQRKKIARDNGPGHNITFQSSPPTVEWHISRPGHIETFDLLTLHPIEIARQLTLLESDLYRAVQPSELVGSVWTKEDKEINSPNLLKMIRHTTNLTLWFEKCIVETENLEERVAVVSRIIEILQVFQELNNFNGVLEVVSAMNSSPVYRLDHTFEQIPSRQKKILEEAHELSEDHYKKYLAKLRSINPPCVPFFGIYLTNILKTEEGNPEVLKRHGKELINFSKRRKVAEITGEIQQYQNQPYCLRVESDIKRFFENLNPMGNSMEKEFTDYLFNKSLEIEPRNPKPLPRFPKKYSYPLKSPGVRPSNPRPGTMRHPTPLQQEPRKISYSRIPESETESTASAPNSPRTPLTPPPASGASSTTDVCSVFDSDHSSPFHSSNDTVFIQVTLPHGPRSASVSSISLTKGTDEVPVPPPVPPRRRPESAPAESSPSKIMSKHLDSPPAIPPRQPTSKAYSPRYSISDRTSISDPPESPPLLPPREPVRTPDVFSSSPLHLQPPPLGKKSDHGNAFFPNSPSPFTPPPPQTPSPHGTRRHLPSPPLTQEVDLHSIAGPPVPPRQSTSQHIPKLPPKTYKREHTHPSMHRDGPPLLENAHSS
Method: Protein-protein interaction between SOS1 and KRAS^G12c was detected using KRAS G12C/SOS1 binding kit from CISBIO (64KRASG12PEH, CISBIO, FRANCE) according to the manufacturer's assay method. Briefly, the maximum concentration of an inhibitor sample was set to be 3 µM, and the inhibitor sample was diluted 7 times by 1/3, and samples having a total of 8 concentrations were prepared. In HTRF (Homogeneous Time-Resolved Fluorescence) exclusive 96-well low-volume white plate (66PL96005, CISBIO, FRANCE), 2 µL of an inhibitor sample prepared for each concentration, 5 µL of a mixed solution of Tag1 labeled KRAS^G12c protein and GTP diluted with the dilution solution provided by the manufacturer, and 5 µL of Tag2 labeled SOS1 protein were mixed, and added with 8 µL of a diluted solution where anti-Tag1 KRAS^G12C XL665 (HTRF acceptor) labeled antibody and anti-Tag2 SOS1 Terbium cryptate (HTRF donor) labeled antibody were mixed in an equal ratio and cultured at room temperature for 2 h.

[3] = GST-KRAS G12D, HIS-SOS1cat, compound 128 pM to 10 µM, read-out: SOS-catalyzed nucleotide exchange assay
[4] = 8 concentrations from 3 µM, three replicates, read-out: KRAS G12C::SOS1 PPI

IC50 [1, 3] [nM]	IC50 [2, 4] [nM]	SMILES	IC50 [1] [nM]	IC50 [2] [nM]
–	–	C[C@@H](NC(=O)c1ccc(=O)n(-c2cncc(-c3cnnn3[C@H]3CC3(F)F)c2)n1)c1cccc(C(F)(F)CO)c1F (single isomer, unassigned) [Example 25]	< 50	< 50
–	–	C[C@@H](NC(=O)c1ccc(=O)n(-c2cncc(-c3cnnn3[C@@H]3CC3(F)F)c2)n1)c1cccc(C(F)(F)CO)c1F (single isomer, unassigned) [Example 26]	< 50	< 50
50 to 150	50 to 150	C[C@@H](NC(=O)c1ccc(=O)n(-c2cncc(-c3cnnn3C)c2)n1)c1cccc(C(F)(F)CO)c1Cl [Example 1-3, N-[(1R)-1-[2-chloro-3-(1,1-difluoro-2-hydroxy-ethyl)phenyl]ethyl]-1-[5-(3-methyltriazol-4-yl)-3-pyridyl]-6-oxo-pyridazine-3-carboxamide]	–	–
< 50	50 to 150	C[C@@H](NC(=O)c1ccc(=O)n(-c2cncc(-c3cnnn3C)c2)n1)c1cccc(C(F)(F)CF)c1F [Example 1-8, (R)-N-(1-(2-fluoro-3-(1,1,2-trifluoroethyl)phenyl)ethyl)-1-(5-(1-methyl-1H-1,2,3-triazol-5-yl)pyridin-3-yl)-6-oxo-1,6-dihydropyridazine-3-carboxamide]	–	–
< 50	50 to 150	COCC(F)(F)c1cccc([C@@H](C)NC(=O)c2ccc(=O)n(-c3cncc(-c4cnnn4C)c3)n2)c1F [Example 1-10, (R)-N-(1-(3-(1,1-difluoro-2-methoxyethyl)-2-fluorophenyl)ethyl)-1-(5-(1-methyl-1H-1,2,3-triazol-5-yl)pyridin-3-yl)-6-oxo-1,6-dihydropyridazine-3-carboxamide]	–	–
< 50	< 50	CCn1nncc1-c1cncc(-n2nc(C(=O)N[C@H](C)c3cccc(C(F)(F)CO)c3F)cc(C)c2=O)c1 [Example 1-13, N-[(1R)-1-[3-(1,1-difluoro-2-hydroxy-ethyl)-2-fluoro-phenyl]ethyl]-1-[5-(3-ethyltriazol-4-yl)-3-pyridyl]-5-methyl-6-oxo-pyridazine-3-carboxamide]	–	–
> 150	> 150	CCn1nccc1-c1cncc(-n2nc(C(=O)N[C@H](C)c3cccc(C(F)(F)CO)c3F)ccc2=O)c1 [Example 1-14, N-[(1R)-1-[3-(1,1-difluoro-2-hydroxy-ethyl)-2-fluoro-phenyl]ethyl]-1-[5-(2-ethylpyrazol-3-yl)-3-pyridyl]-6-oxo-pyridazine-3-carboxamide]	–	–
< 50	< 50	CCn1nncc1-c1cncc(-n2nc(C(=O)N[C@H](C)c3cccc(C(F)(F)CO)c3F)ccc2=O)c1 [Example 1-18, N-[(1R)-1-[3-(1,1-difluoro-2-hydroxy-ethyl)-2-fluoro-phenyl]ethyl]-1-[5-(3-ethyltriazol-4-yl)-3-pyridyl]-6-oxo-pyridazine-3-carboxamide]	–	–
> 150	> 150	C[C@@H](NC(=O)c1ccc(=O)n(-c2cnnc(-c3ccnn3C)c2)n1)c1cccc(C(F)(F)F)c1F [Example 1-19, N-[(1R)-1-[2-fluoro-3-(trifluoromethyl)phenyl]ethyl]-1-[6-(2-methylpyrazol-3-yl)pyridazin-4-yl]-6-oxo-pyridazine-3-carboxamide]	–	–
< 50	< 50	Cc1cc(C(=O)N[C@H](C)c2cccc(C(F)(F)F)c2F)cn(-c2cncc(-c3cnnn3C)c2)c1=O [Example 1-21, (R)-N-(1-(2-fluoro-3-(trifluoromethyl)phenyl)ethyl)-3-methyl-5'-(1-methyl-1H-1,2,3-triazol-5-yl)-2-oxo-2H-[1,3'-bipyridine]-5-carboxamide]	–	–
50 to 150	50 to 150	CCn1nncc1-c1cc(-n2nc(C(=O)N[C@H](C)c3cccc(C(F)(F)F)c3F)ccc2=O)cnc1C [Example 1-27, 1-[5-(3-ethyltriazol-4-yl)-6-methyl-3-pyridyl]-N-[(1R)-1-[2-fluoro-3-(trifluoromethyl)phenyl]ethyl]-6-oxo-pyridazine-3-carboxamide]	–	–
